Literature values in patent publication US20080114028A1, “Process for preparing polymorphic forms of solifenacin succinate” (priority 2006, published 2008).

Settings: at room temperature in water, glacial acetic acid, dimethylsulfoxide, and methanol

solubility: freely soluble
Structure (SMILES): O=C(O[C@H]1CN2CCC1CC2)N1CCc2ccccc2[C@@H]1c1ccccc1 [Solifenacin succinate, solifenacin succinate]
